The values that follow come from US7994318B2, “Coumarin derivatives useful as TNFα inhibitors” (Chugai Seiyaku Kabushiki Kaisha, priority 2000, dated 2011).

pIC50: −log10 of the molar value. Bounds are passed on as bounds.

The first assay deals with TNFα. The assay can be described thus: In vitro assay: TNFα ELISA of supernatants of LPS-stimulated human PBMC. The assay is classed as cell-based. As to conditions: Homo sapiens, PBMC, human PBMC pretreated with drug 60 min, stimulated with LPS (E. coli O55:B5) 100 ng/mL, overnight culture, TNFα in supernatant by ELISA; read-out: 50% Inhibition of TNFα level (IC50). The protocol:
Enzyme-linked immunosorbent assays (ELISA) for TNFα can be performed in a conventional manner (Blood, 75, 40-47 (1990)). Human PBMC are isolated from heparinized venous blood obtained from healthy volunteers by Ficoll-Hypaque density centrifugation. The cells are cultured in RPMI1640 medium supplemented with 5% heat-inactivated fetal calf serum and antibiotics. PBMC (5×10E5 cells/mL) in 0.2 mL aliquot are pretreated with drugs in DMSO for 60 min at 37° C. in 96 well round-bottomed tissue culture plates. Thereafter, PBMC in the presence or absence of compound are stimulated with 1 mg/mL LPS from E. coli O55:B5 at a final concentration of 100 ng/mL. After overnight culture, the supernatants are harvested and assayed immediately for TNFα levels from each well. The concentration of TNFα in the supernatant is determined by human TNFα ELISA Kit according to the manufacture's directions.
Active compounds are characterized by the concentration of the compound that caused 50% inhibition of TNFα level (IC50).
(In an ELISA, binding on a coated surface is turned into a signal by an enzyme label.)
As for `C=Cc1ccc2c(C)c(Cc3ccccc3)c(=O)oc2c1` [Example 23, 2-oxo-3-benzyl-4-methyl-7-vinyl-2H-1-benzopyrane], the negative-log IC50 (pIC50) (commonly the IC50 on a negative log10 scale, so that one unit is a factor of ten) was 4.99.

As for `Cc1c(Cc2ccccc2)c(=O)oc2cc(OC(=O)N(C)C)c(C#N)cc12` [Example 9, dimethyl carbamic acid 2-oxo-2H-3-benzyl-4-methyl-6-cyano-1-benzopyran-7-yl ester], the pIC50 is 6.07.

For `Cc1c(Cc2cccnc2)c(=O)oc2cc(Oc3ncccn3)c(Cl)cc12` [Example 17, 2-oxo-2H-3-(3-pyridylmethyl)-4-methyl-6-chloro-7-(pyrimidin-2-yloxyl)-1-benzopyrane], the negative logarithm of the IC50 (pIC50) is 4.30.

As for `Cc1c(Cc2ccccc2)c(=O)oc2cc(C(F)(F)C(=O)N(C)C)ccc12` [Example 24, 2-oxo-3-benzyl-4-methyl-7-(N,N-dimethylaminocarboxy-difluoromethyl)-1H-benzopyrane], the pIC50 is 4.98.

`Cc1c(Cc2ccccc2)c(=O)oc2cc(Oc3ncccn3)c(Cl)cc12` [Example 16, 2-oxo-2H-3-benzyl-4-methyl-6-chloro-7-(pyrimidin-2-yloxyl)-1-benzopyrane]: the negative-log IC50 (pIC50) is 5.17.

In the case of `Cc1c(Cc2ccccc2)c(=O)oc2cc(Oc3ncccn3)ccc12` [Example 15, 2-oxo-2H-3-benzyl-4-methyl-7-(pyrimidin-2-yloxyl)-1-benzopyrane], the pIC50 is 5.03.

The same assay, now with this note: human PBMC pretreated with drug 60 min, stimulated with LPS (E. coli O55:B5) 100 ng/mL, overnight culture, TNFα in supernatant by ELISA; read-out: 50% Inhibition of TNFα level (IC50).
Take `CC(=O)Nc1cccc(Cc2c(C)c3ccc(Oc4ncccn4)cc3oc2=O)c1` [Example 20-20]: the pIC50 is 5.18.

`COc1ccc(Cc2c(C)c3ccc(OC(=O)N(C)C)cc3oc2=O)cc1` [Example 14-46]: the negative logarithm of the IC50 (pIC50) was 5.25.

For `CCc1c(Cc2ccccc2)c(=O)oc2cc(Oc3ncccn3)ccc12` [Example 20-49], the negative logarithm of the IC50 (pIC50) was 4.96.

Regarding `COC(=O)c1cccc(Cc2c(C)c3ccc(OC(=O)N(C)C)cc3oc2=O)c1` [Example 14-67], the pIC50 is 5.77.

For the compound `Cc1c(Cc2cccc(NC(=O)CNC(=O)OCc3ccccc3)c2)c(=O)oc2cc(Oc3ncccn3)c(Cl)cc12` [Example 20-31], the pIC50 was 5.01.

`Cc1ccc(S(=O)(=O)Nc2cccc(Cc3c(C)c4cc(Cl)c(Oc5ncccn5)cc4oc3=O)c2)cc1` [Example 20-45]: the pIC50 was 5.14.

Take `Cc1c(Cc2ccc(S(C)(=O)=O)cc2)c(=O)oc2cc(OC(=O)N(C)C)ccc12` [Example 14-43]: the pIC50 was 5.18.

As for `Cc1c(Cc2ccccc2)c(=O)oc2cc(C(C)(F)F)ccc12` [Example 26-11], the negative logarithm of the IC50 (pIC50) is 5.05.

`Cc1c(Cc2cccc([N+](=O)[O-])c2)c(=O)oc2cc(OC(=O)N(C)C)ccc12` [Example 14-56]: the negative-log IC50 (pIC50) was 5.35.

Take `CCCCS(=O)(=O)Nc1cccc(Cc2c(C)c3cc(Cl)c(Oc4ncccn4)cc3oc2=O)c1` [Example 20-48]: the pIC50 was 5.74.

Take `CCOC(=O)CNC(=O)Nc1cccc(Cc2c(C)c3ccc(OC(=O)N(C)C)cc3oc2=O)c1` [Example 14-71]: the negative logarithm of the IC50 (pIC50) was 5.62.

`CCOC(=O)CC(=O)Nc1cccc(Cc2c(CC)c3ccc(Oc4nccs4)cc3oc2=O)c1` [Example 22-9]: the pIC50 is 6.57.

With `CCOC(=O)CC(=O)Nc1cccc(Cc2c(C)c3cc(Cl)c(Oc4ncccn4)cc3oc2=O)c1` [Example 20-29], the negative logarithm of the IC50 (pIC50) was more than 6.22.

As for `Cc1c(Cc2ccccc2)c(=O)oc2cc(OC(=O)N(C)C)c(I)cc12` [Example 14-12], the pIC50 was 7.22.

As to `CCCc1c(Cc2ccccc2)c(=O)oc2cc(OC(=O)N(C)C)c(Cl)cc12` [Example 14-83], the negative logarithm of the IC50 (pIC50) is 6.11.

With `CCc1c(Cc2ccccc2)c(=O)oc2cc(Oc3nccs3)ccc12` [Example 22-10], the negative-log IC50 (pIC50) was 5.60.

As for `CC(=O)Nc1cccc(Cc2c(C)c3c(Cl)cc(Oc4ncccn4)cc3oc2=O)c1` [Example 20-37], the pIC50 is 4.93.

On to `CCNC(=O)Nc1cccc(Cc2c(C)c3ccc(OC(=O)N(C)C)cc3oc2=O)c1` [Example 14-69], for which the pIC50 was 5.62.

For `Cc1c(Cc2ccccc2)c(=O)oc2cc(OC(=O)N(C)C)c(C=O)cc12` [Example 14-16], the pIC50 is 5.02.
